Measured values as given in US7531655B2, “Large conductance calcium-activated K channel opener” (Mitsubishi Tanabe Pharma Corporation, priority 2002, dated 2009).

Columns and labels:
[1] = tested on: isolated rabbit urinary bladder; test: Relaxation effect on potassium-induced contraction of isolated rabbit urinary bladder; assay type: cell-based; details: Oryctolagus cuniculus, read-out: IC50 value (50% relaxation concentration)
Description: Relaxation Effect on Potassium-Induced Contraction of Isolated Rabbit Urinary Bladder
Urinary bladder was isolated from Male NZW rabbits (body weight: 2.0-3.5 kg) and immersed in ice-cold Krebs-bicarbonate solution (in mM: 118 NaCl, 4.7 KCl, 2.55 CaCl2, 1.18 MgSO4, 1.18 KH2PO4, 24.88 NaHCO3 and 11.1 glucose). The urinary bladder was cut into longitudinal strips (5 mm length 3-4 mm width) after mucosal layer was removed.
Preparations were mounted in organ baths containing 10 ml of Krebs solution maintained at 37° C. and gassed with 95% O2/5% CO2. Accordingly, preparations were stretched with an initial tension of 2.0±1.0 g, and changes in isometric tension were measured by force-displacement transducer. The preparations were pre-contracted by changing organ-bath solution into high-K^+ (30 mM) Krebs solution (in mM: 118 NaCl, […], 2.55 CaCl2, 1.18 MgSO4, 1.18 KH2PO4, 24.88 NaHCO3 and 11.1 glucose).
After stable tension was obtained, compounds were added into organ baths cumulatively (10^−8 M-10^−4 M). The effects of compounds were expressed as a percentage of the maximum relaxation produced by 10^−4 M papaverine as 100%. 50% relaxation concentration (IC50) was calculated and IC50 value range (μM) of compounds of the present invention was shown in the following Table 1 with a rank of A, B or C. These ranges are as mentioned below. • 3 μM≧C>1 μM≧B>0.5 μM≧A

[2] = tested on: rhythmic bladder contractions induced by substance P; test: Inhibitory effect on the rhythmic bladder contractions induced by substance P in anesthetized rats; assay type: in vivo, rat; details: 0.25 mg/kg intravenous; time during which frequency of rhythmic contraction was completely inhibited; urethane-anesthetized Sprague-Dawley female rats
Description: Inhibitory Effect on the Rhythmic Bladder Contractions Induced by Substance P in Anesthetized Rats For the experiments, Sprague-Dawley female rats (9 to 12 weeks old) weighing between 200 to 300 g were used. After urethane anesthetization (subcutaneously administered with a dose of 1.2 g/kg), cannulae were placed in both right and left femoral veins. One intravenous catheter was used for administration of compounds, and the other was for the substance P (0.33 μg/kg/min) infusion. We also cannulated into ureter to pass urine. Polyethylene catheters were inserted into carotid artery for continuous monitoring of arterial blood pressure and heart rate. For continuous infusion, transurethral bladder catheter was inserted into the bladder through the urethra and tied in place by a ligature around the urethral orifice. One end of the catheter was attached to a pressure transducer in order to measure intravesical pressure. The other end of the catheter was used for infusion of saline into the bladder. After stabilization of blood pressure and heart rate and after the bladder was emptied, cystometry was performed by filling the bladder slowly with about 0.6 ml of saline. After about 10 minutes, intravenous infusion of substance P (0.33 μg/kg/min) was started for stabilization of the micturition reflex. […]

SMILES	IC50 [1] [nM]	100% inhibiting time [2] [min]
O=C([O-])Cc1oc(-c2ccccc2)cc1-c1ccc(Cl)s1.[Na+] [2 (Compound 6)]	< 500	13.1
O=C([O-])Cc1sc(-c2ccccc2)cc1-c1ccc(Cl)s1.[Na+] [3 (Compound 6)]	500 to 1000	27.1
